test system: papillary muscle of the guinea pig; test: Action potential duration on the papillary muscle of the guinea pig (hypoxia-shortened APD90); conditions: 2 μM; 60 min after addition; relative to shortening caused by hypoxia
From the text: Action Potential Duration on the Papillary Muscle of the Guinea Pig
ATP deficiency states observed during ischemia in the cardiac muscle cell, lead to a shortening of the action potential duration (ATP=adenosine triphosphate). They are regarded as one of the causes of so-called reentry arrhythmias, which can cause sudden cardiac death. The opening of ATP-sensitive potassium channels by the lowering of the ATP level is regarded as the cause of this. For the measurement of the action potential on the papillary muscle of the guinea pig a standard microelectrode technique was employed.
Guinea pigs of both sexes were killed by a blow to the head, the hearts were removed, and the papillary muscles were separated out and suspended in an organ bath. The organ bath was rinsed with Ringer's solution (136 mmol/l of NaCl, 3.3 mmol/l of KCl, 2.5 mmol/l of CaCl2, 1.2 mmol/l of KH2PO4, 1.1 mmol/l of MgSO4, 5.0 mmol/l of glucose, 10.0 mmol/l of 1-(2-hydroxyethyl)piperazine4-(2-ethanesulfonic acid) (HEPES), pH adjusted to 7.4 with NaOH) and aerated with 100% oxygen at a temperature of 37° C. The muscle was stimulated with square-wave pulses of 1 V and 1 ms duration and a frequency of 1 Hz by means of an electrode. The action potential was derived and recorded by means of a glass microelectrode inserted intracellularly, which was filled with 3 mol/l of KCl solution. The compound to be tested was added to the Ringer's solution in a concentration of 2 μmol/l. The action potential was amplified using an amplifier from Hugo Sachs (March-Hugstetten, Germany) and stored and analyzed by means of a computer. The duration of the action potential was determined at a degree of repolarization of 90% (APD90). After an equilibration time of 30 min, the action potential shortening was produced by rinsing the papillary muscle with a hypoxic NaCl solution. The glucose was removed here, the HEPES buffer replaced by PIPES buffer (piperazine-1,4-bis(2-ethanesulfonic acid)), the pH was adjusted to 6.5 and the aeration was carried out using 100% nitrogen. After a time of 60 min, this led to a marked shortening of the APD90. After this time, the test compound was added and the relengthening of the action potential recorded after a further 60 min. The compound-caused relengthening of the APD90 was calculated as a percentage, in relation to the shortening caused by hypoxia. The test compounds were added to the bath solution as stock solution in propanediol.
The following relengthenings of the APD90 values were observed.

Compound | Relengthening of the APD90 shortened by hypoxia
CNC(=S)NS(=O)(=O)c1cc(CCNC(=O)c2cnc3ccccc3c2)ccc1OCCOC [Example 2, 1-[5-(2-(3-Quinolinecarboxamido)ethyl)-2-(2-methoxyethoxy)phonylsulfonyl]-3-methyl-thiourea] | 42%
CCCOc1ccc(CCNC(=O)c2cnc3ccccc3c2)cc1S(=O)(=O)NC(=S)NC [Example 8, 1-[5-(2-(3-Quinolinecarboxamido)ethyl)-2-propyloxyphenylsulfonyl]-3-methyl-thiourea] | 35%
CNC(=S)NS(=O)(=O)c1cc(CCNC(=O)C=C(C)C)ccc1OCCOC [Example 17, 1-[5-(2-(3-Methylbut-2-eneamido)ethyl)-2-(2-methoxyethoxy)phenylsulfonyl]-3-methyl-thiourea] | 34%
CNC(=S)NS(=O)(=O)c1cc(CCNC(=O)c2cnc3ccccc3c2)ccc1OCCOCC(F)(F)F [Example 4, 1-[5-(2-(3-Quinolinecarboxamido)ethyl)-2-(2-(2,2,2-trifluoroethoxy)ethoxy)phenyl-sulfonyl]-3-methyl-thiourea] | 69%

test system: chloroform-induced ventricular fibrillation in the mouse; test: Chloroform-induced ventricular fibrillation in the mouse; format: in vivo; conditions: 3 mg/kg i.p., 30 min before chloroform anesthesia; untreated control 100%
From the text: Chloroform-induced Ventricular Fibrillation in the Mouse (Action in the Case of Vagal Dysfunction)
Hypoactivity of the vagal nervous system leads to hyperactivity of the sympathetic nervous system. Damages to health that result from an inequilibrium of the autonomic nervous system when the dysfunction affects the heart include the weakening of the myocardial contractile force and fatal cardiac arrhythmias such as ventricular fibrillation. The action of the test compounds was investigated in the model of chloroform-induced ventricular fibrillation in the mouse (see J. W. Lawson, Antiarrhythmic activity of some isoquinoline derivatives determined by a rapid screening procedure in the mouse; J. Pharmacol. Exp. Ther. 160 (1968) 22).
The test compound was dissolved in a mixture of dimethyl sulfoxide (DMSO) and 10 percent sodium hydrogencarbonate solution and administered intraperitoneally (i.p.). The dose was 3 mg/kg. 30 min later, the mouse was anesthetized with chloroform in a beaker. As soon as respiratory arrest had occurred under deep anesthesia (toxic stage of anesthesia), the thorax of the animal was opened using a pair of scissors and the heartbeat was visually inspected. It can be determined here at a glance whether the heart is beating, fibrillating, or has stopped. […]

Compound | Fibrillation ratio (in %)
COc1ccc(CCNC(=O)C2=CCCCC2)cc1S(=O)(=O)NC(=S)NC1CCCCC1 [Example 21, 1-[5-(2-(1-Cyclohex-1-enecarboxamido)ethyl)-2-methoxyphenylsulfonyl]-3-cyclohexyl-thiourea] | 70%
COc1ccc(CCNC(=O)C2=CCCCC2)cc1S(=O)(=O)NC(=S)NC(C)C [Example 20, 1-[5-(2-(1-Cyclohex-1-enecarboxamido)ethyl)-2-methoxyphenylsulfonyl]-3-isopropyl-thiourea] | 70%

biological target: hSUR1/hKir6.2 (Homo sapiens, UniProt Q09428+Q14654); test: Action on hSUR1/hKir6.2-transfected CHO cells (membrane potential, DIBAC4 fluorescence, FLIPR); format: cell-based; conditions: 10 μM; CHO cells activated with diaxozide
Sequence (Q09428 whole entry): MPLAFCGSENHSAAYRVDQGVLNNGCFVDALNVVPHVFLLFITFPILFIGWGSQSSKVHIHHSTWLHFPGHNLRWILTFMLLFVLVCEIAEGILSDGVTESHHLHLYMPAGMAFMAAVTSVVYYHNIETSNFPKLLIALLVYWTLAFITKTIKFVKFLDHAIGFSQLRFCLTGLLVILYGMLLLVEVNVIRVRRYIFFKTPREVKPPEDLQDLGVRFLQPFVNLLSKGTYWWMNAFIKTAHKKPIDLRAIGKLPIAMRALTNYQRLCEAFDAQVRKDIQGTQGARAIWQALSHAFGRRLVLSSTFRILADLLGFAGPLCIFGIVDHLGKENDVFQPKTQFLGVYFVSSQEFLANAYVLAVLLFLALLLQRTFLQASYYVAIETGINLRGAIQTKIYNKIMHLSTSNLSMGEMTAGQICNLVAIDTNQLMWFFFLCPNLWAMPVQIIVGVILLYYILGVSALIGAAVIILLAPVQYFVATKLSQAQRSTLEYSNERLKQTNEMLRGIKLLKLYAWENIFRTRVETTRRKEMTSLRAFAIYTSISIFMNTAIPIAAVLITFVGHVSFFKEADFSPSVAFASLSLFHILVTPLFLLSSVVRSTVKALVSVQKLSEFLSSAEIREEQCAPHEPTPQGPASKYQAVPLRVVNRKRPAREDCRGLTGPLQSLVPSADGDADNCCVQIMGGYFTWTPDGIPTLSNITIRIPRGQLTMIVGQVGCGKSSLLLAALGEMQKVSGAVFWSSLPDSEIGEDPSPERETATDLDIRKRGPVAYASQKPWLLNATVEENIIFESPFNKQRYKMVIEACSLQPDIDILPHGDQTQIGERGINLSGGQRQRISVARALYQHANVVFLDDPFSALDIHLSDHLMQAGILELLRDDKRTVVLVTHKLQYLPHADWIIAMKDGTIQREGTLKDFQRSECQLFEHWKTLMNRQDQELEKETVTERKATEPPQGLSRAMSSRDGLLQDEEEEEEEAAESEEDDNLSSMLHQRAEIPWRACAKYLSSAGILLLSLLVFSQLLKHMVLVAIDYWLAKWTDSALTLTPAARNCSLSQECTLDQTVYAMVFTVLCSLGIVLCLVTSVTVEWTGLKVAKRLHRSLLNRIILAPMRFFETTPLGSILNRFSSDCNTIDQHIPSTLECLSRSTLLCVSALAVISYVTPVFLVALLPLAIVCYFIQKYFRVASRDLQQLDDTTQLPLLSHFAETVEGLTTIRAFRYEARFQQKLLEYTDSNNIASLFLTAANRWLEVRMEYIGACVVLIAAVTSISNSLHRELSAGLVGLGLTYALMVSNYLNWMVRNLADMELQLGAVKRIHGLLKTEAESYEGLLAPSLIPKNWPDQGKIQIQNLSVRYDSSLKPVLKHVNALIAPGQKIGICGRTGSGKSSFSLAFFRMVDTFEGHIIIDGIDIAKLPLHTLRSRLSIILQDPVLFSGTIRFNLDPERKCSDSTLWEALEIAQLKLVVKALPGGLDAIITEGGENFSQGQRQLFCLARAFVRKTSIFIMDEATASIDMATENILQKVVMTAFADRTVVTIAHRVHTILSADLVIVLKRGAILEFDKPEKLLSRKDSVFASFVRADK
Sequence (Q14654 whole entry): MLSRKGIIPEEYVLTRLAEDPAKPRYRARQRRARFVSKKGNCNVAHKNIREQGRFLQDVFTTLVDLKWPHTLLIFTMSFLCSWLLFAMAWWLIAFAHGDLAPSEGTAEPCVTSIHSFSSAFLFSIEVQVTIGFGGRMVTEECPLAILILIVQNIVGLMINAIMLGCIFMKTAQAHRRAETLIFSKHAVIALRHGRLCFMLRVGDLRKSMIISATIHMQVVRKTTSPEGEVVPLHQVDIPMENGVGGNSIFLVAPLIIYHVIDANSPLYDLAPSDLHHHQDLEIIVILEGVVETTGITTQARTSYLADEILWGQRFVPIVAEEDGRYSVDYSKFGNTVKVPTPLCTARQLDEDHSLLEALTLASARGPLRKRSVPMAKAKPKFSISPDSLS
From the text: Action on hSUR1/hKir6.2-transfected CHO Cells (Hypoglycemic Action)
The target organ of these compounds is the […] of the pancreas where they block ATP-sensitive potassium channels and produce a release of the hypoglycemic hormone insulin by influencing the electrical potential of the cell membrane.
The extent of this depolarization of the cell membrane, which is caused by the compounds according to the invention, was investigated on CHO cells that were transfected with the cloned components of human pancreatic ATP-sensitive potassium channels, hSUR1, and hKir6.2, and activated by pretreatment with diaxozide, an opener of ATP-sensitive potassium channels. The potency of a compound with respect to the membrane potential of these transfected and activated CHO cells is a measure of the hypoglycemic potential of this compound.
On the day of measurement, the microtiter plates were washed three times with PBS (physiological buffer solution). In the last washing step, 90 μl remained in each well. The cells were then loaded with the fluorescent dye DIBAC4 (Molecular Probes, Portland, Oreg., USA) by addition of 90 μl of a 10-micromolar solution of DIBAC4 in PBS and of 90 μl of a 400 micromolar solution of diaxozide in PBS to each well. After an incubation time of 30 min at 37° C., the microtiter plates were then transferred to a fluorescent microtiter plate reader (FLIPR; Molecular Devices, Sunnyvale, Calif., USA). The cells were stimulated by means of an argon laser (Innova 90; Coherent, Santa Clara, Calif., USA) at a wavelength of 488 nm and the fluorescence emission was measured by means of a CCD camera. The measurement of the membrane potential began after 4 min by addition of 20 μl of a solution of the test compound or of the control solution to each well, the resulting fluorescence emission being measured every 20 seconds for a period of 20 min. The data shown are mean values of at least 4 experiments.

Compound | Blockade hSUR1/hKir6.2
CNC(=S)NS(=O)(=O)c1cc(CCNC(=O)c2cnc3ccccc3c2)ccc1OCCOC [Example 2, 1-[5-(2-(3-Quinolinecarboxamido)ethyl)-2-(2-methoxyethoxy)phonylsulfonyl]-3-methyl-thiourea] | 6.1%
COc1ccc(CCNC(=O)C2=CCCCC2)cc1S(=O)(=O)NC(=S)NC(C)C [Example 20, 1-[5-(2-(1-Cyclohex-1-enecarboxamido)ethyl)-2-methoxyphenylsulfonyl]-3-isopropyl-thiourea] | 38.3%
CNC(=O)NS(=O)(=O)c1cc(CCNC(=O)c2cnc3ccccc3c2)ccc1OCCOC [Example 3, 1-[5-(2-(3-Quinolinecarboxamido)ethyl)-2-(2-methoxyethoxy)phenylsulfonyl]-3-methyl-urea] | 0%
CNC(=S)NS(=O)(=O)c1cc(CCNC(=O)c2cnc3ccccc3c2)ccc1OCCOCC(F)(F)F [Example 4, 1-[5-(2-(3-Quinolinecarboxamido)ethyl)-2-(2-(2,2,2-trifluoroethoxy)ethoxy)phenyl-sulfonyl]-3-methyl-thiourea] | 69.8%
CNC(=S)NS(=O)(=O)c1cc(CCNC(=O)c2cnc3ccccc3c2)ccc1OCCOc1ccccc1 [Example 11, 1-[5-(2-(3-Quinolinecarboxamido)ethyl)-2-(2-phenoxyethoxy)phenylsulfonyl]-3-methyl-thiourea] | 67.5%

test system: not given; test: not given; conditions: not given

Compound | melting point
CNC(=S)NS(=O)(=O)c1cc(CCNC(=O)c2cnc3ccccc3c2)ccc1OCC(F)(F)F [Example 13, 1-[5-(2-(3-Quinolinecarboxamido)ethyl)-2-(2,2,2-trifluoroethoxy)phenylsulfonyl]-3-methyl-thiourea] | 75 °C
CNC(=S)NS(=O)(=O)c1cc(CCNC(=O)C2=CCCCC2)ccc1OC [Example 18, 1-[5-(2-(1-Cyclohex-1-enecarboxamido)ethyl)-2-methoxyphenylsulfonyl]-3-methyl-thiourea] | 179 to 182 °C
CCOCCOc1ccc(CCNC(=O)c2cnc3ccccc3c2)cc1S(=O)(=O)NC(=S)NC [Example 10, 1-[5-(2-(3-Quinolinecarboxamido)ethyl)-2-(2-ethoxyethoxy)phenylsulfonyl]-3-methyl-thiourea] | 50 to 52 °C
CNC(=O)NS(=O)(=O)c1cc(CCNC(=O)C=C(C)C)ccc1OC [Example 16, 1-[5-(2-(3-Methylbut-2-eneamido)ethyl)-2-methoxyphenylsulfonyl]-3-methyl-urea] | 199 to 203 °C
CNC(=S)NS(=O)(=O)c1cc(CCNC(=O)c2cnc3ccccc3c2)ccc1OC [Example 1, 1-[5-(2-(3-Quinolinecarboxamido)ethyl)-2-methoxyphenylsulfonyl]-3-methyl-thiourea] | 85 °C
CNC(=S)NS(=O)(=O)c1cc(CCNC(=O)c2cnc3ccccc3c2)ccc1-c1ccco1 [Example 14, 1-[5-(2-(3-Quinolinecarboxamido)ethyl)-2-(2-furyl)phenylsulfonyl]-3-methyl-thiourea] | 155 to 156 °C
CNC(=S)NS(=O)(=O)c1cc(CCNC(=O)C=C(C)C)ccc1OC [Example 15, 1-[5-(2-(3-Methylbut-2-eneamido)ethyl)-2-methoxyphenylsulfonyl]-3-methyl-thiourea] | 153 to 154 °C
CNC(=S)NS(=O)(=O)c1cc(CCNC(=O)c2cnc3ccccc3c2)ccc1OCCc1ccccc1 [Example 12, 1-[5-(2-(3-Quinolinecarboxamido)ethyl)-2-(2-phenylethoxy)phenylsulfonyl]-3-methyl-thiourea] | 124 °C
CNC(=O)NS(=O)(=O)c1cc(CCNC(=O)C2=CCCCC2)ccc1OC [Example 19, 1-[5-(2-(1-Cyclohex-1-enecarboxamido)ethyl)-2-methoxyphenylsulfonyl]-3-methyl-urea] | 175 °C
CCOc1ccc(CCNC(=O)c2cnc3ccccc3c2)cc1S(=O)(=O)NC(=S)NC [Example 7, 1-[5-(2-(3-Quinolinecarboxamido)ethyl)-2-ethoxyphenylsulfonyl]-3-methyl-thiourea] | 189 to 193 °C
CNC(=S)NS(=O)(=O)c1cc(CCNC(=O)C2=CCCCC2)ccc1OCCOC [Example 22, 1-[5-(2-(1-Cyclohex-1-enecarboxamido)ethyl)-2-(2-methoxyethoxy)phenylsulfonyl]-3-methyl-thiourea] | 150 to 155 °C
CCCOc1ccc(CCNC(=O)c2cnc3ccccc3c2)cc1S(=O)(=O)NC(=O)NC [Example 9] | 120 °C
CNC(=O)NS(=O)(=O)c1cc(CCNC(=O)c2cnc3ccccc3c2)ccc1OCCOCC(F)(F)F [Example 6, 1-[5(2-(3Quinolinecarboxamido)ethyl)-2-(2(2,2,2-trifluoroethoxy)ethoxy)phenyl-sulfonyl]-3-methyl-urea] | 128 °C
CNC(=S)NS(=O)(=O)c1cc(CCNC(=O)c2cnc3ccccc3c2)ccc1OCCOc1ccccc1 [Example 11, 1-[5-(2-(3-Quinolinecarboxamido)ethyl)-2-(2-phenoxyethoxy)phenylsulfonyl]-3-methyl-thiourea] | 110 °C

Reference: patent US6511989B2, “Acylaminoalkyl-substituted benzenesulfonamide derivatives, their preparation, their use and pharmaceutical preparations comprising them” (Aventis Pharma Deutschland GmbH, priority 2000, dated 2003)
